Tests used:
[1] = tested on: Human mammary adenocarcinoma (MCF7) cells; assay: Cell viability (MTT) and EC50, MCF7; type: cell-based; details: for effect on cell viability (in words): MCF7, 48 h, four doses (nanocomposites 0.025-0.5 mg/ml)
Description: (§1) Human mammary adenocarcinoma (MCF7) and the non-cancerous human foreskin fibroblasts (HFF) cell lines were used to assess the cytotoxic effect of the prepared compounds. Cells were cultured in a DMEM culture medium containing 10% HI—FBS, 1% Penicillin Streptomycin, and 1% MEM NEAA. Cells were maintained in a humidified setting at 37° C. with 5% CO2. For cell viability assay, cells were seeded in a 96-well plate with a density of 20,000 cells/well. While for microscopic images, 50,000 cells/well were plated on an eight-well chamber slide. On the following day, cells were switched to the starve culture medium that contains 0.5% HI—FBS. Cells were maintained for 24 h in the starve medium before the treatment was added.
(§2) MCF7 and HFF cells were treated with the subsequent conditions for 48 h: CuFe2O4/Mesosilicalite, Curcumin, Cisplatin, CuFe2O4/Mesosilicalite/Curcumin, CuFe2O4/Mesosilicalite/Curcumin/Cisplatin, or CuFe2O4/MCM-41/Curcumin/Cisplatin. Treatment concentrations of CuFe2O4/Mesosilicalite, CuFe2O4/Mesosilicalite/Curcumin, CuFe2O4/Mesosilicalite/Curcumin/Cisplatin, and CuFe2O4/MCM-41/Curcumin/Cisplatin nanocomposites were: 0.025, 0.05, 0.1, and 0.5 mg/ml. Based on the drug loading experiments, simple calculations were followed to reflect the actual quantity of curcumin and cisplatin that adsorbed on CuFe2O4/Mesosilicalite nanoparticles. According to the loading experiments, 1 mg of CuFe2O4 nanoparticles contains 0.25 mg and 0.045 mg of curcumin and cisplatin, respectively. Thus, if CuFe2O4/Mesosilicalite concentration was 0.5 mg/ml, there is 0.125 mg/ml of adsorbed curcumin and 0.0225 mg/ml of functionalized cisplatin. Therefore, the treatment concentrations of curcumin were: 0.00625, 0.0125, 0.025 and 0.125 mg/ml and the treatment concentrations of cisplatin were: 0.001125, 0.00225, 0.0045 and 0.0225 mg/ml.
(§3) To assess the compounds' cytotoxicity, 3-(4,5-dimethylthiazol-2-yl)-2,5-diphenyltetrazolium bromide (MTT), a cell viability assay, was used. It measures the cell viability by assessing the mitochondria's ability to convert yellow MTT solution into purple formazan insoluble crystals. […] The difference in color intensity was measured by SYNERGY-neo2 BioTek ELISA reader at 570 nm as a measuring wavelength. The technical triplicate readings of each condition were averaged, and the absorbance from MTT negative control was deducted from these readings. An initial reading was measured before MTT addition at the same wavelength. Thus, to remove undesirable interference in the measurement, the initial reading was subtracted from the final reading. Then, the treatment groups were analyzed by comparing them to the control (untreated cells). Cell viability was calculated using the following equation (1): […]

[2] = tested on: non-cancerous human foreskin fibroblasts (HFF); assay: Cell viability (MTT) and EC50, HFF; type: cell-based; details: for effect on cell viability (in words): HFF, 48 h, four doses (nanocomposites 0.025-0.5 mg/ml)
Description: as §1, §2, §3

[3] = Cell viability (MTT) and EC50, HFF; type: cell-based, human; details: human, HFF cells (non-cancerous human foreskin fibroblasts); HFF, third dose (0.1 mg/ml nanocomposite; 0.025 mg/ml curcumin), 48 h, versus untreated control
Description: as §1, §2, §3

For `N.N.[Cl][Pt][Cl]` [Cisplatin, cisplatin], the “effect on cell viability (in words)” value [1] was “reduction in cell viability”, the “EC50 Value” ([1]; MCF-7 cell line, 48 h MTT, best-fit line) was 4.425 µg/mL and the “EC50 Value” ([2]; HFF cell line, 48 h MTT, best-fit line) was 3.763 µg/mL. The “effect on cell viability (in words)” value [2] was “reduction in cell viability”.

In the case of `COc1cc(/C=C/C(=O)CC(=O)/C=C/c2ccc(O)c(OC)c2)ccc1O` [Curcumin], the viability at 25 µg/mL ([1]; Homo sapiens, MCF7, third dose (0.1 mg/ml nanocomposite; 0.025 mg/ml curcumin), 48 h, versus untreated control) is reported as 80.7%, the “effect on cell viability (in words)” value [1] is reported as “reduced cell viability only at the highest concentration” and the viability at 48 h, 0.025 mg/ml [3] is reported as 84.1%. For the same compound, the “effect on cell viability (in words)” value [2] was “minimally reduced the cell viability”.
